US20240000745A1, “COMPOSITIONS AND METHODS USING A COMBINATION OF OLEUROPEIN AND QUERCETIN FOR CELLULAR ENERGY” (SOCIETE DES PRODUITS NESTLE S.A., priority 2020, published 2024)

Tested on: HeLa cells
Assay: Mitochondrial calcium elevation in histamine-stimulated HeLa cells (mitochondrially targeted aequorin luminescence)
Format: cell-based
Procedure: To test the effect of oleuropein (or oleuropein aglycone), quercetin and their combination in living cells, the inventors measured mitochondrial calcium elevation in HeLa cells. HeLa cells were purchased from ATCC. HeLa cells were seeded in 96-well plates at a density of 50000 cells per well in minimal essential medium (DMEM, Gibco), high glucose, +10% fetal calf serum.
Mitochondrial calcium measurements were carried out using Hela cells infected with the adenovirus (from Sirion biotech) expressing the mitochondrially targeted calcium sensor mitochondrial mutated aequorin (Montero et al., 2004). For aequorin reconstitution, 24 hours after infection, cells were incubated for 2 h at room temperature (22±° C.) in standard medium (145 mM NaCl, 5 mM KCl, 1 mM MgCl2, 1 mM CaCl2, 10 mM glucose and 10 mM Hepes, pH 7.4) with 1 μM wild-type coelenterazine.
For treatment, compounds were directly added to the cell culture or myotubes cultures 2 hours before measurements. Luminescence was measured at the FLIPR Tetra Aequorin (Molecular Devices). […] Calibration of the luminescence data into calcium concentration was carried out using an algorithm, as described previously (Alvarez & Montero, 2002). Custom module analysis based on Excel (Microsoft) and GhaphPad Prism 7.02 (GraphPad) software was used for quantification.

## C/C=C1/C(O)OC=C(C(=O)OC)[C@H]1CC(=O)OCCc1ccc(O)c(O)c1 (mixture of isomers) [oleuropein aglycone]
3 μM + 3 μM quercetin, integrated mitochondrial calcium rise evoked by 100 μM histamine, HeLa cells, compounds added 2 hours before measurement, P<0.05
  synergism with quercetin to activate mitochondria via mitochondrial Ca2+ rise (measured effect of the combination vs. theoretical sum of the single effects): synergizes with quercetin
Synergisms calculated as in FIG. 1 and FIG. 2, n=6, NS at P<0.05 (Student's t-test)
  level of synergism in combination with quercetin, compared between oleuropein and oleuropein aglycone: same level of synergism
